{"source": "patent US20110230481A2", "about": "“DERIVATIVES OF TETRABROMOBENZIMIDAZOLE, A PROCESS FOR THE PREPARATION THEREOF, A PHARMACEUTICAL COMPOSITION COMPRISING THE SAME, A METHOD OF USING THE SAME, A METHOD FOR MODULATING OR REGULATING SERINE/THREONINE KINASES, AND SERINE/THREONINE KINASES MODULATING AGENT” (SELVITA S.A., priority 2009, published 2011)", "test_in_all_cases": "KINOMEscan Max", "type_in_all_cases": "binding", "key": {"[1]": {"target": "DCAMKL1 (Homo sapiens, UniProt O15075)", "conditions": "1 μM", "outline": "(§1)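 Binding was measured by competition: compounds were tested for their ability to displace DNA-tagged kinases from an immobilized ligand directed at the active site, with quantitative PCR of the tag as read-out.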"}, "[2]": {"target": "T1, CDK8 (Homo sapiens, UniProt P49336)", "T1 construct": "purchased Ambit (KINOMEscan Max service)", "conditions": "1 μM", "outline": "as §1"}, "[3]": {"target": "CSNK1A1L (Homo sapiens, UniProt Q8N752)", "outline": "as §1"}, "[4]": {"target": "T2, MET(Y1235D) (Homo sapiens, UniProt P08581, Y1235D)", "T2 construct": "purchased Ambit (KINOMEscan Max service)", "conditions": "1 μM", "outline": "as §1"}, "[5]": {"target": "NEK4 (Homo sapiens, UniProt P51957)", "outline": "as §1"}, "[6]": {"target": "T3, ERK2 (Homo sapiens, UniProt P28482)", "T3 construct": "purchased Ambit Kinomescan (contract panel, KINOMEscan Max)", "outline": "as §1"}, "[7]": {"target": "T4, DRAK2 (Homo sapiens, UniProt O94768)", "T4 construct": "purchased Ambit (KINOMEscan Max panel service)", "outline": "as §1"}, "[8]": {"target": "T5, AMPK-alpha1 (Homo sapiens, UniProt Q13131)", "T5 construct": "DNA tag (qPCR label); purchased Ambit Kinomescan (contract screening)", "outline": "as §1"}, "[9]": {"target": "T6, MAP3K2 (Homo sapiens, UniProt Q9Y2U5)", "T6 construct": "purchased Ambit Kinomescan (contract panel)", "outline": "as §1"}, "[10]": {"target": "T7, SRMS (Homo sapiens, UniProt Q9H3Y6)", "T7 construct": "DNA tag (qPCR read-out)", "outline": "as §1"}, "[11]": {"target": "T8, SgK110 (Homo sapiens, UniProt P0C264)", "T8 construct": "DNA tag (qPCR read-out)", "outline": "as §1"}, "[12]": {"target": "T9, FLT3 (Homo sapiens, UniProt P36888)", "T9 construct": "purchased Ambit Kinomescan (contract panel, KINOMEscan Max)", "T9 sequence (P36888 27-993)": "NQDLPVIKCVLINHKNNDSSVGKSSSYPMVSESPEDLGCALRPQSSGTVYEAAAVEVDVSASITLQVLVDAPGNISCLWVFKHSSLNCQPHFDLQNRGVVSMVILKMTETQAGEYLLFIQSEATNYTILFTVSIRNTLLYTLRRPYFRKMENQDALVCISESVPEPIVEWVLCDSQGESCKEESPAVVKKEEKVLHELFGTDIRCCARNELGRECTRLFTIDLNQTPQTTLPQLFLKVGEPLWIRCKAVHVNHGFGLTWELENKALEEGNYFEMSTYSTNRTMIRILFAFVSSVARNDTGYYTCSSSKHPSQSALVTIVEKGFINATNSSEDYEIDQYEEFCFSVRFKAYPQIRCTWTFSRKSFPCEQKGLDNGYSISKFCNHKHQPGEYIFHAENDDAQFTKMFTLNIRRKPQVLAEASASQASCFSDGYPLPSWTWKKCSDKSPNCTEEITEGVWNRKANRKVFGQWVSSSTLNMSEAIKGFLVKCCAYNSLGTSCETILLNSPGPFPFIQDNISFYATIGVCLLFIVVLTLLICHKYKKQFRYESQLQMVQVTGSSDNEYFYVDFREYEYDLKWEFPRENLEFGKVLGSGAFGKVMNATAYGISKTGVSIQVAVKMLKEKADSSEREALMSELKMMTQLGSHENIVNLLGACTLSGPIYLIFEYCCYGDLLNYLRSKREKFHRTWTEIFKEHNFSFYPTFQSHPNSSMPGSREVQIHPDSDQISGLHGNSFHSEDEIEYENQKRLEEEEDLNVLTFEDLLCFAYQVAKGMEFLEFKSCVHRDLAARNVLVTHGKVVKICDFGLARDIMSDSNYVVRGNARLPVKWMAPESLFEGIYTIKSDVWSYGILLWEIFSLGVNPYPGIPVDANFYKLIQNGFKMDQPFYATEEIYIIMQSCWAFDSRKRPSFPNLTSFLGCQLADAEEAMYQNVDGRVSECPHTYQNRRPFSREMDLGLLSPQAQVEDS", "outline": "as §1"}, "[13]": {"target": "T10, RSK1(Kin.Dom.1-N-terminal) (Homo sapiens, UniProt Q15418)", "T10 construct": "RSK1(Kin.Dom.1-N-terminal); DNA tag (qPCR read-out)", "outline": "as §1"}, "[14]": {"target": "T11, CDK4-cyclinD1 (Homo sapiens, UniProt P11802)", "T11 construct": "DNA tag (qPCR label); purchased Ambit Kinomescan (contract screening)", "outline": "as §1"}, "[15]": {"target": "T12, TAOK1 (Homo sapiens, UniProt Q7L7X3)", "T12 construct": "DNA tag (qPCR read-out)", "outline": "as §1"}, "[16]": {"target": "T13, CHEK1 (Homo sapiens, UniProt O14757)", "T13 construct": "DNA tag (qPCR read-out)", "conditions": "1 μM", "outline": "as §1"}, "[17]": {"target": "T14, GSK3B (Homo sapiens, UniProt P49841)", "T14 construct": "purchased Ambit Kinomescan (contract panel, KINOMEscan Max)", "outline": "as §1"}, "[18]": {"target": "ABL1(M351T)-phosphorylated (Homo sapiens, UniProt P00519, M351T)", "outline": "as §1"}, "[19]": {"target": "CAMK2A (Homo sapiens, UniProt Q9UQM7)", "outline": "as §1"}, "[20]": {"target": "T15, FES (Homo sapiens, UniProt P07332)", "T15 construct": "purchased Ambit Kinomescan (contract panel, KINOMEscan Max)", "T15 sequence (P07332 whole entry)": "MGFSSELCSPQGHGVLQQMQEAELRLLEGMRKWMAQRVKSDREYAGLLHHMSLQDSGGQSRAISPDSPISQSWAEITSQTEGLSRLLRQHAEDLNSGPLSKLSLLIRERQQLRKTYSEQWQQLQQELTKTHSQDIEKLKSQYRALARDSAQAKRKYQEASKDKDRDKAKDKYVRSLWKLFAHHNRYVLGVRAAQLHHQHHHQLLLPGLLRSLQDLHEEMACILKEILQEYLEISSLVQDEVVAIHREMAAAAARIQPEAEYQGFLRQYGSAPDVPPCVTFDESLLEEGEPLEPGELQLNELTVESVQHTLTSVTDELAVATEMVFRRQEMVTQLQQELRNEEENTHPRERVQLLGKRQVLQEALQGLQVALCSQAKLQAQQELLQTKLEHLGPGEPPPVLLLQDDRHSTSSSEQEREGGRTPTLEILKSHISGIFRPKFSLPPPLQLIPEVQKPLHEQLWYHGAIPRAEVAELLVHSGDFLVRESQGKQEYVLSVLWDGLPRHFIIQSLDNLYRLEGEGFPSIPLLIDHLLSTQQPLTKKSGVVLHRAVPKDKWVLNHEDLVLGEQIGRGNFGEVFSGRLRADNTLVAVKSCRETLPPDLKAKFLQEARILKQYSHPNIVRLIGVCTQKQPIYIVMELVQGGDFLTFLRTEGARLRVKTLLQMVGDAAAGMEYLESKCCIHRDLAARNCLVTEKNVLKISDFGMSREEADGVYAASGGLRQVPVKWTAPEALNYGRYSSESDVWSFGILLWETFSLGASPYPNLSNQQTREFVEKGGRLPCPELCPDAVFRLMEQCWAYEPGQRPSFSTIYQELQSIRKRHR", "outline": "as §1"}, "[21]": {"target": "T16, PIP5K2C (Homo sapiens, UniProt Q8TBX8)", "T16 construct": "DNA tag (qPCR read-out)", "outline": "as §1"}, "[22]": {"target": "NEK5 (Homo sapiens, UniProt Q6P3R8)", "outline": "as §1"}, "[23]": {"target": "T17, HUNK (Homo sapiens, UniProt P57058)", "T17 construct": "purchased Ambit Kinomescan (contract panel, KINOMEscan Max)", "outline": "as §1"}, "[24]": {"target": "PIP5K1A (Homo sapiens, UniProt Q99755)", "sequence (Q99755 whole entry)": "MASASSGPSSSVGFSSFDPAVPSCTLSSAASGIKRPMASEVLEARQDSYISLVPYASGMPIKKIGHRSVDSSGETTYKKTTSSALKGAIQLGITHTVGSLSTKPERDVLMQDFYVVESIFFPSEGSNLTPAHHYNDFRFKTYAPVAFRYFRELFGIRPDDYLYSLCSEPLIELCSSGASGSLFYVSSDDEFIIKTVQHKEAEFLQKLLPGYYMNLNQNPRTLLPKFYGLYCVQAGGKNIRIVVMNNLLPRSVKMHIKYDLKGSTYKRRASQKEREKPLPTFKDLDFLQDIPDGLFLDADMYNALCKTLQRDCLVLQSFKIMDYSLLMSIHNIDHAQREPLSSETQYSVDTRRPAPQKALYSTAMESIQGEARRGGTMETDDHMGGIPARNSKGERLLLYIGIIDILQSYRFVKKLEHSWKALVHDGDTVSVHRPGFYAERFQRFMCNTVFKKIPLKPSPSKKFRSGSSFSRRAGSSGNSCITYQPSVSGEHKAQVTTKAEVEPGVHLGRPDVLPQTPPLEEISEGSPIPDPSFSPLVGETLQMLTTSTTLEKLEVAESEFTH", "outline": "as §1"}, "[25]": {"target": "TESK1 (Homo sapiens, UniProt Q15569)", "sequence (Q15569 whole entry)": "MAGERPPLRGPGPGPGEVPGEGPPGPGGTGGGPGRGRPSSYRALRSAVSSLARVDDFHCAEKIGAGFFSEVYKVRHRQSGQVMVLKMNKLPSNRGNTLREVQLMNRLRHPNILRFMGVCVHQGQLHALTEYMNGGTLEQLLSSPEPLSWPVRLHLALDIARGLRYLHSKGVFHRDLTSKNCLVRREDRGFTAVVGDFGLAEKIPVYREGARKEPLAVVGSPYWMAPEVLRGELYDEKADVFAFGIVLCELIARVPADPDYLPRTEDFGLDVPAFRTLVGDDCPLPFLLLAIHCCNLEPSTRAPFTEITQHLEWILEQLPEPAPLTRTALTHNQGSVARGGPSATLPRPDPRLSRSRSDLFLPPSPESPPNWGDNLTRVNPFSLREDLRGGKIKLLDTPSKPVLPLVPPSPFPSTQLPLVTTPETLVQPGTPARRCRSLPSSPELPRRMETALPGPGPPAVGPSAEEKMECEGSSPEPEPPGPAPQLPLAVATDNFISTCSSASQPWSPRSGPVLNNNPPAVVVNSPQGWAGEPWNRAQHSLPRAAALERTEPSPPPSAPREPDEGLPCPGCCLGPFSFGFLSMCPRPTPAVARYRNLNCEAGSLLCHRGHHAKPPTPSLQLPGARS", "outline": "as §1"}, "[26]": {"target": "T18, JAK2(JH1domain-catalytic) (Homo sapiens, UniProt O60674)", "T18 construct": "JAK2(JH1domain-catalytic); purchased Ambit Kinomescan (contract screening)", "conditions": "1 μM", "outline": "as §1"}, "[27]": {"target": "NDR1 (Homo sapiens, UniProt Q15208)", "sequence (Q15208 whole entry)": "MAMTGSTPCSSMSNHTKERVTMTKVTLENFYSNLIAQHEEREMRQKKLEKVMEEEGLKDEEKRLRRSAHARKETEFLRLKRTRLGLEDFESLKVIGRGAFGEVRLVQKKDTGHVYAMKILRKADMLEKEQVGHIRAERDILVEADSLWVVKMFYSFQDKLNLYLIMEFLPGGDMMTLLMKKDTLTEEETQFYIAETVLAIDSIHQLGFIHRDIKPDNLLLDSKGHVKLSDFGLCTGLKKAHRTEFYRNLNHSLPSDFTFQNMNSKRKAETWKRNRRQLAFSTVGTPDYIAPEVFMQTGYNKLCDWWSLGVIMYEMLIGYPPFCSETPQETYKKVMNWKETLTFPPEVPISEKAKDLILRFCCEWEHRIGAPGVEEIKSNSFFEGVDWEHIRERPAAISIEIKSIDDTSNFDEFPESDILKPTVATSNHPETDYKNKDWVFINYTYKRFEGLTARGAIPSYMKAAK", "outline": "as §1"}, "[28]": {"target": "T19, SIK (Homo sapiens, UniProt P57059)", "T19 construct": "DNA tag (qPCR read-out)", "T19 sequence (P57059 whole entry)": "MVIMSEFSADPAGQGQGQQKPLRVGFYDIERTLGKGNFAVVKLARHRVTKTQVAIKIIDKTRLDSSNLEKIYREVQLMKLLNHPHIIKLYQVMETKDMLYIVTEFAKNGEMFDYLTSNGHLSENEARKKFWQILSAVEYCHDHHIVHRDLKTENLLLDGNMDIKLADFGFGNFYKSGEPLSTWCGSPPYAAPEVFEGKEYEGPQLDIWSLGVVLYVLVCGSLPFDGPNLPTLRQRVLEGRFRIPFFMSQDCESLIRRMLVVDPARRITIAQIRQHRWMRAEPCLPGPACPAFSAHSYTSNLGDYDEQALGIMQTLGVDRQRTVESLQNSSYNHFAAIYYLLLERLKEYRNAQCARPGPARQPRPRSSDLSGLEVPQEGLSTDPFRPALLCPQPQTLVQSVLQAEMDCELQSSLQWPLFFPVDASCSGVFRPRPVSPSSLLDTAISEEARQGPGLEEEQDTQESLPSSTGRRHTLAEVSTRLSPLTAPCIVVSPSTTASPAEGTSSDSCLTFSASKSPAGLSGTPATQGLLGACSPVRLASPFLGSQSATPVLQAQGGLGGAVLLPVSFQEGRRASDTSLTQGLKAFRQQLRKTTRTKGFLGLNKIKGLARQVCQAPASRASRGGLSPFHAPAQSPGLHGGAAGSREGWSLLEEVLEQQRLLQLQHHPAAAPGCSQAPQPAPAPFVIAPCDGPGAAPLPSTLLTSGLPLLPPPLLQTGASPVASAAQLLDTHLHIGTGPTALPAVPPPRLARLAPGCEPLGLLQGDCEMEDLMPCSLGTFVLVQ", "conditions": "1 μM", "outline": "as §1"}, "[29]": {"target": "T20, ASK1 (Homo sapiens, UniProt Q99683)", "T20 construct": "DNA tag (qPCR label); purchased Ambit Kinomescan (contract screening)", "outline": "as §1"}, "[30]": {"target": "T21, CAMK1D (Homo sapiens, UniProt Q8IU85)", "T21 construct": "DNA tag (qPCR label); purchased Ambit Kinomescan (contract screening)", "T21 sequence (Q8IU85 whole entry)": "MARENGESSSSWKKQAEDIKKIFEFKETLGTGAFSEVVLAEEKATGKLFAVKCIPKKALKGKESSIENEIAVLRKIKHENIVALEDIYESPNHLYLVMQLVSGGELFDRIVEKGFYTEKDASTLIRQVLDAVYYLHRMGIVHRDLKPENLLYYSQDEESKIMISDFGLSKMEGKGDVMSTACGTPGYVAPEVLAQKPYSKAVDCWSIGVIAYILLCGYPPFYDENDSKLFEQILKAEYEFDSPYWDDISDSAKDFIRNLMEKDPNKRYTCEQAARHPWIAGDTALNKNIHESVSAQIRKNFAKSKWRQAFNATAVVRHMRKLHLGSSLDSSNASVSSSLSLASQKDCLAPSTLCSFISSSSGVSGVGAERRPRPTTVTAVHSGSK", "outline": "as §1"}, "[31]": {"target": "T22, FAK (Homo sapiens, UniProt Q05397)", "T22 construct": "DNA tag (qPCR read-out)", "outline": "as §1"}, "[32]": {"target": "T23, RSK1(Kin.Dom.2-C-terminal) (Homo sapiens, UniProt Q15418)", "T23 construct": "RSK1(Kin.Dom.2-C-terminal); purchased Ambit Kinomescan (contract screening)", "T23 sequence (Q15418 418-675 limits assumed)": "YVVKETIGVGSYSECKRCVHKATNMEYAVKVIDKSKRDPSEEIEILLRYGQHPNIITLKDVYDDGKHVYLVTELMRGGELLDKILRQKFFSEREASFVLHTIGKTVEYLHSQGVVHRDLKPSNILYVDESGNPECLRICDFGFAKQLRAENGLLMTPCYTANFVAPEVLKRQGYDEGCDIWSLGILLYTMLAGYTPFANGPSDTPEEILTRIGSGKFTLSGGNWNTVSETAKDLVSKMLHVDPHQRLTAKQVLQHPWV", "outline": "as §1"}, "[33]": {"target": "PAK6 (Homo sapiens, UniProt Q9NQU5)", "outline": "as §1"}, "[34]": {"target": "T24, PRKD2 (Homo sapiens, UniProt Q9BZL6)", "T24 construct": "DNA tag (qPCR read-out)", "outline": "as §1"}}}
{"smiles": "NCCCNc1nc2c(Br)c(Br)c(Br)c(Br)c2[nH]1", "note": "[Compound 11, N-(3-aminopropyl)-4,5,6,7-tetrabromo-1H-benzo[d]imidazol-2-amine]", "values": [{"measurement": "% binding", "setting": "[1]", "result": 96, "unit": "%"}, {"measurement": "% binding", "setting": "[2]", "result": 68, "unit": "%"}, {"measurement": "remaining binding at 1 µM", "setting": "[3]", "result": 76, "unit": "%"}, {"measurement": "% binding", "setting": "[4]", "result": 70, "unit": "%"}, {"measurement": "remaining binding at 1 µM", "setting": "[5]", "result": 98, "unit": "%"}, {"measurement": "remaining binding at 1 µM", "setting": "[6]", "result": 100, "unit": "%"}, {"measurement": "remaining binding at 1 µM", "setting": "[7]", "result": 100, "unit": "%"}, {"measurement": "remaining binding at 1 µM", "setting": "[8]", "result": 100, "unit": "%"}, {"measurement": "remaining binding at 1 µM", "setting": "[9]", "result": 100, "unit": "%"}, {"measurement": "remaining binding at 1 µM", "setting": "[10]", "result": 100, "unit": "%"}, {"measurement": "remaining binding at 1 µM", "setting": "[11]", "result": 100, "unit": "%"}, {"measurement": "remaining binding at 1 µM", "setting": "[12]", "result": 100, "unit": "%"}, {"measurement": "remaining binding at 1 µM", "setting": "[13]", "result": 100, "unit": "%"}, {"measurement": "remaining binding at 1 µM", "setting": "[14]", "result": 100, "unit": "%"}, {"measurement": "remaining binding at 1 µM", "setting": "[15]", "result": 100, "unit": "%"}, {"measurement": "% binding", "setting": "[16]", "result": 88, "unit": "%"}, {"measurement": "remaining binding at 1 µM", "setting": "[17]", "result": 100, "unit": "%"}, {"measurement": "remaining binding at 1 µM", "setting": "[18]", "result": 100, "unit": "%"}, {"measurement": "remaining binding at 1 µM", "setting": "[19]", "result": 96, "unit": "%"}, {"measurement": "remaining binding at 1 µM", "setting": "[20]", "result": 100, "unit": "%"}, {"measurement": "remaining binding at 1 µM", "setting": "[21]", "result": 56, "unit": "%"}, {"measurement": "remaining binding at 1 µM", "setting": "[22]", "result": 100, "unit": "%"}, {"measurement": "remaining binding at 1 µM", "setting": "[23]", "result": 100, "unit": "%"}, {"measurement": "remaining binding at 1 µM", "setting": "[24]", "result": 75, "unit": "%"}, {"measurement": "remaining binding at 1 µM", "setting": "[25]", "result": 93, "unit": "%"}, {"measurement": "% binding", "setting": "[26]", "result": 98, "unit": "%"}, {"measurement": "remaining binding at 1 µM", "setting": "[27]", "result": 100, "unit": "%"}, {"measurement": "% binding", "setting": "[28]", "result": 100, "unit": "%"}, {"measurement": "remaining binding at 1 µM", "setting": "[29]", "result": 100, "unit": "%"}, {"measurement": "remaining binding at 1 µM", "setting": "[30]", "result": 100, "unit": "%"}, {"measurement": "remaining binding at 1 µM", "setting": "[31]", "result": 89, "unit": "%"}, {"measurement": "remaining binding at 1 µM", "setting": "[32]", "result": 96, "unit": "%"}, {"measurement": "remaining binding at 1 µM", "setting": "[33]", "result": 99, "unit": "%"}, {"measurement": "remaining binding at 1 µM", "setting": "[34]", "result": 42, "unit": "%"}]}
